Literature values as cited in patent US6653469B1, “Antibiotic purification method” (Murty Pharmaceuticals, Inc., priority 2002, dated 2003).

Assays:
[1] = not given; remark: listed apart in the source
[2] = tested on: heat shock protein 90 (Hsp90)

COC1=C2C[C@@H](C)C[C@H](OC)[C@H](O)[C@@H](C)/C=C(\C)[C@H](OC(N)=O)[C@@H](OC)/C=C\C=C(/C)C(=O)NC(=CC1=O)C2=O [geldanamycin]
solubility in acetone, benzene, and ethyl acetate (acetone, benzene, ethyl acetate): less soluble | solubility in alcohols and aliphatic chlorinated solvents such as chloroform (alcohols, chloroform): soluble | solubility in water (water): only slightly soluble | stability to acid, base, or heat ([1]; acid, base, or heat in the presence of oxygen): decompose easily | photolytic stability ([1]; aqueous and nonaqueous solutions): undergoes photolytic degradation

CO[C@H]1[C@@H](OC)C[C@H](C)[C@@H](OC)C2=CC(=O)C=C(NC(=O)/C(C)=C/C=C\[C@H](OC)[C@@H](OC(N)=O)/C(C)=C/[C@@H]1C)C2=O [herbimycin A]
binding to Hsp90 and effect on Hsp90 function [2]: bind specifically to Hsp90

COC1CC(C)C(OC)c2cc(O)cc(c2O)NC(=O)/C(C)=C\C=C/C(C)C(OC(N)=O)/C(C)=C\C(C)C1OC (stereo not shown) [macbecin II]
binding to Hsp90 and effect on Hsp90 function [2]: bind specifically to Hsp90
